Experimental data: patent publication US9592221B2, “Antibacterial agents: aryl myxopyronin derivatives” (priority 2012, dated 2017)

Columns and labels:
Brucella melitensis 16M = test: microbe, parasite or virus in culture; assay type: cell-based; conditions: Brucella melitensis, 16M, read-out: MIC B. melitensis 16M
[1] = target: S. aureus RNA polymerase core enzyme, S. aureus σ^A (Staphylococcus aureus, UniProt P47768+Q2G0N5); test: Fluorescence-detected RNA polymerase assay, S. aureus RNA polymerase; assay type: biochemical; conditions: read-out: IC50 S. aureus RNAP
[2] = target: M. tuberculosis RNA polymerase core enzyme, M. tuberculosis σ^A (Mycobacterium tuberculosis, UniProt P9WGY7+P9WGY9); test: Fluorescence-detected RNA polymerase assay, M. tuberculosis RNA polymerase; assay type: biochemical; conditions: read-out: IC50 M. tuberculosis RNAP
[3] = test system: Escherichia coli D21f2tolC; test: MIC, spiral gradient endpoint assay, E. coli D21f2tolC; assay type: cell-based; conditions: Escherichia coli, D21F2TOLC, read-out: MIC E. coli D21f2toIC
[4] = test system: Bacillus anthracis Vollum 1b; test: microbe, parasite or virus in culture; assay type: cell-based; conditions: Bacillus anthracis, VOLLUM1B, read-out: MIC B. anthracis Vollum-1b
[5] = test system: Burkholderia pseudomallei Human/Blood/OH/US/1994; test: microbe, parasite or virus in culture; assay type: cell-based; conditions: Burkholderia pseudomallei, read-out: MIC B. pseudomallei Human/Blood/OH
Yersinia pestis C092 = test: microbe, parasite or virus in culture; assay type: cell-based; conditions: Yersinia pestis, C092, read-out: MIC Y. pestis C092
[6] = test system: Acinetobacter baumannii ATCC 19606; test: MIC, spiral gradient endpoint assay, A. baumannii; assay type: cell-based; conditions: ATCC19606; Acinetobacter baumannii ATCC 19606
Burkholderia mallei CHN7 = test: microbe, parasite or virus in culture; assay type: cell-based; conditions: Burkholderia mallei, CHN7, read-out: MIC B. mallei CHN7
[7] = target: E. coli RNA polymerase σ^70 holoenzyme (Escherichia coli, UniProt P0A8T7+P0A8V2); test: Fluorescence-detected RNA polymerase assay, E. coli RNA polymerase; assay type: biochemical; conditions: read-out: IC50 E. coli RNAP
[8] = test system: Staphylococcus aureus ATCC 12600; test: MIC, spiral gradient endpoint assay, S. aureus ATCC 12600; assay type: cell-based; conditions: ATCC12600; Staphylococcus aureus ATCC 12600
[9] = test system: Francisella tularensis SCHU4; test: microbe, parasite or virus in culture; assay type: cell-based; conditions: Francisella tularensis, SCHU4, read-out: MIC F. tularensis SCHU4
[10] = test system: Mycobacterium tuberculosis H37Rv; test: MIC, microplate Alamar Blue assay, M. tuberculosis; assay type: cell-based

Sequence of S. aureus RNA polymerase core enzyme, S. aureus σ^A (Q2G0N5 whole entry): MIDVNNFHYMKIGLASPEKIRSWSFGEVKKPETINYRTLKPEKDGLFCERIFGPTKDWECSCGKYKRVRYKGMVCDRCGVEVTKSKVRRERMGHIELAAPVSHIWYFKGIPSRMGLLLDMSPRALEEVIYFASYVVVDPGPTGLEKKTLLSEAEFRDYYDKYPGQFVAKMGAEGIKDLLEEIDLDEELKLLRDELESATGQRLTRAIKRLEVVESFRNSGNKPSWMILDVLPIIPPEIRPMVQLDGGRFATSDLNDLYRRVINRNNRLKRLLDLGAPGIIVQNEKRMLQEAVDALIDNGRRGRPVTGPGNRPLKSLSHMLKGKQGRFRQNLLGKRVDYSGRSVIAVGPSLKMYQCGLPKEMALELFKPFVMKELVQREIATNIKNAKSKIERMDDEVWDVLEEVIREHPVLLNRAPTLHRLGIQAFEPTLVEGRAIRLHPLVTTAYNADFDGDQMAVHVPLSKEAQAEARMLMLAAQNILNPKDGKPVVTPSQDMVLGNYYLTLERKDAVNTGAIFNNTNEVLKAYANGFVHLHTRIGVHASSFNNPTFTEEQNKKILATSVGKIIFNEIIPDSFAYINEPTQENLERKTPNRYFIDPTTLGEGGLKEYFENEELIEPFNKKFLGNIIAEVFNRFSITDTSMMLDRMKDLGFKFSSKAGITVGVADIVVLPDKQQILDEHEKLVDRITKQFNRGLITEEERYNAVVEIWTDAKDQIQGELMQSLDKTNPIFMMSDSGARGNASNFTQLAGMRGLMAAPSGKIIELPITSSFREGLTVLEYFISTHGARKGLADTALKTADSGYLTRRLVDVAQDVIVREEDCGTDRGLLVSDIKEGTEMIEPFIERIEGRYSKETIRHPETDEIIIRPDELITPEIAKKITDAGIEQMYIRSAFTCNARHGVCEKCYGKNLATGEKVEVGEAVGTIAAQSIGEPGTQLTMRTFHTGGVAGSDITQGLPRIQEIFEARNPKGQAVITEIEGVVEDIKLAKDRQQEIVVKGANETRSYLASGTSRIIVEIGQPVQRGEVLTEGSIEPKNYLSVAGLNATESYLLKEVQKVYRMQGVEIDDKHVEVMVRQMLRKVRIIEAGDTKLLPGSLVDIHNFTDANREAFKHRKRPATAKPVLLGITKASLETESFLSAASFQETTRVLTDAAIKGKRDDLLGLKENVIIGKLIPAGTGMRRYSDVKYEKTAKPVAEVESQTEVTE
Sequence of S. aureus RNA polymerase core enzyme, S. aureus σ^A (Q2FW32 whole entry, further chain): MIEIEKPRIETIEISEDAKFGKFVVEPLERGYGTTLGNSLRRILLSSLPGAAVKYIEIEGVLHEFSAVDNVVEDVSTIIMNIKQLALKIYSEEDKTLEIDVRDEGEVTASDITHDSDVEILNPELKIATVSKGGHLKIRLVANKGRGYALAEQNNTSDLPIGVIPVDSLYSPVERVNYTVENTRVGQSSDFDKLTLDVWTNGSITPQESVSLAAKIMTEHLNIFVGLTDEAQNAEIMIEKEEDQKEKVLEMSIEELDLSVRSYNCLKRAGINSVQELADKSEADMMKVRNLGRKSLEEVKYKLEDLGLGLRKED
Sequence of S. aureus RNA polymerase core enzyme, S. aureus σ^A (P0A0J0 whole entry, further chain): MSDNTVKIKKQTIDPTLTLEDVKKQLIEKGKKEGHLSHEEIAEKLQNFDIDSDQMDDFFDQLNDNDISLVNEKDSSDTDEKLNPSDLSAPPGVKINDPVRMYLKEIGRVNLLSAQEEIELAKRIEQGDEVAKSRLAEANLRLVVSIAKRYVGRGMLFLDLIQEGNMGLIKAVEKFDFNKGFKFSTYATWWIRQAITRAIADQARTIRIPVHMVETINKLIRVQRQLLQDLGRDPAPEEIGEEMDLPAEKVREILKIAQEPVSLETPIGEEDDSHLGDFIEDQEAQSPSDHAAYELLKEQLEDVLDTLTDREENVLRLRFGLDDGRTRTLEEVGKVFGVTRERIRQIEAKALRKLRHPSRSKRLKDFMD
Sequence of S. aureus RNA polymerase core enzyme, S. aureus σ^A (P47768 whole entry): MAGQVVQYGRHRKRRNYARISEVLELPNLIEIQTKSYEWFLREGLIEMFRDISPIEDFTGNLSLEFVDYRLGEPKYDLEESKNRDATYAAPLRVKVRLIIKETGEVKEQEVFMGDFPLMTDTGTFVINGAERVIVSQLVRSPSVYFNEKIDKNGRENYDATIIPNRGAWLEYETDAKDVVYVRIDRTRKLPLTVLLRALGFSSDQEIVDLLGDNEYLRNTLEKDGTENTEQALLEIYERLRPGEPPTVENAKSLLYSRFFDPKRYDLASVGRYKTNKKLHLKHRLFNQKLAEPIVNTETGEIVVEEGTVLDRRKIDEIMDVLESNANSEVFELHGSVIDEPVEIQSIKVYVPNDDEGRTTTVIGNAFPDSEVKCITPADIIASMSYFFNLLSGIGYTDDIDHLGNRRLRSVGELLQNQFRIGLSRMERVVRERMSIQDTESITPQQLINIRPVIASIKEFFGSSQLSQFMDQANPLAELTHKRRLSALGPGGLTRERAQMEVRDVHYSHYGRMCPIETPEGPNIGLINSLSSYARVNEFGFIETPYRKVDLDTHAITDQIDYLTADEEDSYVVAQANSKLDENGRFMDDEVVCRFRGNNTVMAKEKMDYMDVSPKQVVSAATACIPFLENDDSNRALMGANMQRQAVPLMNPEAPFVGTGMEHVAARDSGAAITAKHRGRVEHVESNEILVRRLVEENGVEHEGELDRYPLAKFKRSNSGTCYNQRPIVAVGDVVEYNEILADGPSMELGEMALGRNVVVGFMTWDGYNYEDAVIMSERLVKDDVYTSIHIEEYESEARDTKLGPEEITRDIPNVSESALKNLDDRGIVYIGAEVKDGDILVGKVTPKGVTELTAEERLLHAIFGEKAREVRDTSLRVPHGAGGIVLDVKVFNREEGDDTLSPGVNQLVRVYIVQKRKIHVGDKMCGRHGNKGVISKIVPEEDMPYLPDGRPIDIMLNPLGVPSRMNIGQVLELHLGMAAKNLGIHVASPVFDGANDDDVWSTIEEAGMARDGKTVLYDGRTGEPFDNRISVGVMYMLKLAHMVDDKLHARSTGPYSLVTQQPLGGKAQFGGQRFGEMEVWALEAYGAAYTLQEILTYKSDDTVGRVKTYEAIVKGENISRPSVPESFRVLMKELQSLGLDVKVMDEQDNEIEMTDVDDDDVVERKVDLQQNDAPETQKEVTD

| SMILES | MIC (Brucella melitensis 16M) [µg/mL] | IC50 [1] [nM] | IC50 [2] [nM] | MIC [3] [µg/mL] | MIC [4] [µg/mL] | MIC [5] [µg/mL] | MIC (Yersinia pestis C092) [µg/mL] | MIC [6] [µg/mL] | MIC (Burkholderia mallei CHN7) [µg/mL] | IC50 [7] [nM] | MIC [8] [µg/mL] | MIC [9] [µg/mL] | MIC [10] [µg/mL] |
| --- | --- | --- | --- | --- | --- | --- | --- | --- | --- | --- | --- | --- | --- |
| C=CCCc1ccc(C=C(C)C(=O)c2c(O)cc(C(C)CC/C=C/NC(=O)OC)oc2=O)s1 (mixture of isomers) [APY28, methyl (E)-5-(3-((E/Z)-3-(5-(but-3-enyl)thiophen-2-yl)-2-methylacryloyl)-4-hydroxy-2-oxo-2H-pyran-6-yl)hex-1-enylcarbamate] | 0.4 | 60 | 200 | 0.3 | 6 | 30 | 30 | 30 | 10 | 40 | 2 | 30 | 6 |
| COC(=O)N/C=C/CCC(C)c1cc(O)c(C(=O)C(C)=Cc2ccc(CCC(C)C)s2)c(=O)o1 (mixture of isomers) [APY31, methyl (E)-5-(4-hydroxy-3-((E/Z)-3-(5-isopentylthiophen-2-yl)-2-methylacryloyl)-2-oxo-2H-pyran-6-yl)hex-1-enylcarbamate] | 0.8 | 50 | 20 | < 0.3 | 0.4 | 6 | 10 | 6 | 2 | 10 | 0.4 | 6 | 3 |
| CCCCc1ccc(C=C(CC)C(=O)c2c(O)cc(C(C)CC/C=C/NC(=O)OC)oc2=O)s1 (mixture of isomers) [APY21, methyl (E)-5-(3-((E/Z)-2-((5-butylthiophen-2-yl)methylene)butanoyl)-4-hydroxy-2-oxo-2H-pyran-6-yl)hex-1-enylcarbamate] | 2 | 500 | 300 | 0.3 | 3 | 10 | > 50 | 20 | 6 | 40 | 2 | 3 | 10 |
| CCCCc1ccc2oc(C=C(C)C(=O)c3c(O)cc(C(C)CC/C=C/NC(=O)OC)oc3=O)cc2c1 (mixture of isomers) [APY25, methyl (E)-5-(3-((E/Z)-3-(5-butylbenzofuran-2-yl)-2-methylacryloyl)-4-hydroxy-2-oxo-2H-pyran-6-yl)hex-1-enylcarbamate] | 0.8 | 70 | 600 | 0.3 | 0.2 | 6 | 30 | > 40 | 2 | 10 | 3 | 3 | 6 |
| CCCCCCc1ccc(C=C(C)C(=O)c2c(O)cc(C(C)CC/C=C/NC(=O)OC)oc2=O)o1 (mixture of isomers) [APY17, methyl (E)-5-(3-((E/Z)-3-(5-hexylfuran-2-yl)-2-methylacryloyl)-4-hydroxy-2-oxo-2H-pyran-6-yl)hex-1-enylcarbamate] | 2 | 100 | 900 | 0.1 | 2 | 30 | 10 | 10 | 3 | 20 | 8 | 0.8 | 10 |
| CCCCCCc1ccc2oc(C=C(C)C(=O)c3c(O)cc(C(C)CC/C=C/NC(=O)OC)oc3=O)cc2c1 (mixture of isomers) [APY20, methyl (E)-5-(3-((E/Z)-3-(5-hexylbenzofuran-2-yl)-2-methylacryloyl)-4-hydroxy-2-oxo-2H-pyran-6-yl)hex-1-enylcarbamate] | 0.8 | 20 | 300 | 0.3 | 2 | > 50 | > 50 | > 40 | 2 | 4 | > 40 | 0.8 | 6 |
| CCCCCCc1coc(C=C(C)C(=O)c2c(O)cc(C(C)CC/C=C/NC(=O)OC)oc2=O)c1 (mixture of isomers) [APY19, methyl (E)-5-(3-((E/Z)-3-(4-hexylfuran-2-yl)-2-methylacryloyl)-4-hydroxy-2-oxo-2H-pyran-6-yl)hex-1-enylcarbamate] | 0.4 | 30 | 400 | 0.1 | 2 | 3 | 6 | 10 | 0.8 | 7 | 2 | 6 | 6 |
| CCCCc1ccc2sc(C=C(C)C(=O)c3c(O)cc(C(C)CC/C=C/NC(=O)OC)oc3=O)cc2c1 (mixture of isomers) [APY26, methyl (E)-5-(3-((E/Z)-3-(5-butylbenzo[b]thiophen-2-yl)-2-methylacryloyl)-4-hydroxy-2-oxo-2H-pyran-6-yl)hex-1-enylcarbamate] | 2 | 200 | 1000 | 0.3 | 2 | > 50 | > 50 | > 40 | 6 | 20 | > 40 | 2 | 6 |
| CCCCCCc1cccc(C=C(C)C(=O)c2c(O)cc(C(C)CC/C=C/NC(=O)OC)oc2=O)c1 (mixture of isomers) [APY34, methyl (E)-5-(3-((E/Z)-3-(3-hexylphenyl)-2-methylacryloyl)-4-hydroxy-2-oxo-2H-pyran-6-yl)hex-1-enylcarbamate] | 3 | 50 | 3000 | 0.3 | 3 | 30 | > 50 | 10 | 3 | 10 | > 40 | 6 | 30 |
| C=CCCCCc1ccc(C=C(C)C(=O)c2c(O)cc(C(C)CC/C=C/NC(=O)OC)oc2=O)s1 (mixture of isomers) [APY29, methyl (E)-5-(3-((E/Z)-3-(5-(hex-5-enyl)thiophen-2-yl)-2-methylacryloyl)-4-hydroxy-2-oxo-2H-pyran-6-yl)hex-1-enylcarbamate] | 0.8 | 90 | 500 | 0.3 | 3 | 10 | 10 | 30 | 3 | 40 | 4 | 10 | 30 |
| CCCCCCc1csc(C=C(C)C(=O)c2c(O)cc(C(C)CC/C=C/NC(=O)OC)oc2=O)c1C (mixture of isomers) [APY27, methyl (E)-5-(3-((E/Z)-3-(4-hexyl-3-methylthiophen-2-yl)-2-methylacryloyl)-4-hydroxy-2-oxo-2H-pyran-6-yl)hex-1-enylcarbamate] | 2 | 100 | 1000 | 0.3 | 3 | 50 | > 50 | 20 | 6 | 10 | 6 | 3 | 10 |
| COC(=O)N/C=C/CCC(C)c1cc(O)c(C(=O)C(C)=Cc2ccc(CCCC3CCCCC3)s2)c(=O)o1 (mixture of isomers) [APY32, methyl (E)-5-(3-((E/Z)-3-(5-(3-cyclohexylpropyl)thiophen-2-yl)-2-methylacryloyl)-4-hydroxy-2-oxo-2H-pyran-6-yl)hex-1-enylcarbamate] | 2 | 6 | 2000 | 0.4 | 2 | 6 | > 50 | > 40 | 2 | 6 | > 40 | 0.8 | 6 |
| CCCCCCc1ccc(C=C(C)C(=O)c2c(O)cc(C(C)CC/C=C/NC(=O)OC)oc2=O)s1 (mixture of isomers) [APY15, methyl (E)-5-(3-((E/Z)-3-(5-hexylthiophen-2-yl)-2-methylacryloyl)-4-hydroxy-2-oxo-2H-pyran-6-yl)hex-1-enylcarbamate] | 0.4 | 20 | 200 | 0.08 | 0.4 | 3 | 3 | 6 | 0.8 | 5 | 0.9 | 0.4 | > 50 |
